In patent US20240075000A1 (priority 2021, published 2024):

Columns and labels:
[1] = system: resistance-trained adults; settings: in vivo; cited from earlier work
fetus = settings: in vivo; cited from earlier work
LD50 toxicity = settings: in vivo
Protocol: The dose ratio between toxic and therapeutic effects is the therapeutic index and it can be expressed as the ratio LD50/ED50. […] The “no observable adverse effects level” (NOAEL) in a 90-day sub-chronic rat study was 500 mg/kg (the highest dose in the test).

Parkinson's patients = assay: double blinded placebo-controlled trial in Parkinson's patients, MDS-UPDRS fatigue question 1.13; format: in vivo, human; settings: 2 capsules benaGene (100 mg oxaloacetate/150 mg ascorbic acid) per day, 4 months, P value<0.05, 13 patients
Protocol: As used herein, the term “MDS-UPDRS” refers to the “Movement Disorder Society-Sponsored Revision of the United Parkinson's Disease Rating Scale” (Goetz et al, Movement Disorder Society-Sponsored Revision of the United Parkinson's Disease Rating Scale (MDS-UPDRS): Scale Presentation and Clinimetric Testing Results, Movement Disorders Vol. 23, No. 15, 2008, pp. 2129-2170).
Based on the findings of the Inventor, a clinical trial was performed on Parkinson's Disease patients. The trial used the MDS-UPDRS (Goetz et al, Movement Disorder Society-Sponsored Revision of the United Parkinson's Disease Rating Scale (MDS-UPDRS): Scale Presentation and Clinimetric Testing Results, Movement Disorders Vol. 23, No. 15, 2008, pp. 2129-2170) (45) as a validated method to clinically measure pathological fatigue in Parkinson's patients. The Fatigue question is as follows: • 1.13 Fatigue • Over the past week, have you usually felt fatigued? This feeling is not part of being sleepy or sad • 0: Normal: No fatigue • 1: Slight: Fatigue occurs.

ALS patient = ALS patient on long-term supplementation; format: in vivo, human; settings: 3,000 mg daily, after 8 months
From the text: For ALS, this is surprising and welcome news as the anticipated decline rate for this period of time ranges from 12% to 43% as measured by the ALS FRS. (Ong M L, Tan P F, Holbrook J D. Predicting functional decline and survival in amyotrophic lateral sclerosis. PLoS One. 2017; 12(4):e0174925. Published 2017 Apr. 13. doi:10.1371/journal.pone.0174925).
The patient's email: • “Dear Alan, Good afternoon. […] We are thrilled! Could we please have some more medicine? Thanks!”

pneumonia patient = assay: fatigue after pneumonia, patient testimonial; format: in vivo, human; settings: 500 mg daily
From the text: The Inventor has supplied Anhydrous Enol-Oxaloacetate for fatigue after pneumonia. Pneumonia patients often suffer from physiological fatigue. In a retrospective study of 506 adults with clinical and radiographic evidence of pneumonia, […] of the patients suffered from fatigue at 90 days after diagnosis. (Metlay J P, Fine M J, Schulz R, Marrie T J, Coley C M, Kapoor W N, et al. Measuring symptomatic and functional recovery in patients with community-acquired pneumonia. J Gen Intern Med. 1997; 12(7):423-30). […] The place where oxaloacetate made the most significant difference for me was in alleviation of the crushing fatigue that accompanied the pneumonia. […] On querying nurses and physical therapists about this response, the universal answer was that it was “typical.” Speaking with people who had had pneumonia at different ages—granted that this is anecdotal—garnered consistent stories of extreme fatigue and a slow recovery that took years to achieve prior energy levels even with people who had been physically active teenagers at the time. • I was in the hospital for 2 weeks and then in skilled care for about 6 weeks, putting me in the 40% of the population that don't manage to avoid hospitalization. […]

patients with ME/CFS = assay: clinical trial in ME/CFS, three dosage levels; format: in vivo, human
cancer patients = assay: cancer patient fatigue case reports (Examples 13-17); format: in vivo, human
From the text: A cancer patient with recurrent stage 4 glioblastoma multiforme encountered significant fatigue as part of the ongoing disease.
A cancer patient with Stage 2 primary prostate cancer experienced significant fatigue. […] The patient has been able to eliminate pathological fatigue for 4 years now and is continuing the dosage.
A cancer patient with stage 4 primary hepatocellular carcinoma experienced significant fatigue, and due to cancer progression, was placed in hospice.
A cancer patient with stage 4 breast cancer experienced pathological fatigue.
A cancer patient with stage 3 colon cancer experienced pathological fatigue. […] The patient continued to be fatigue-free and went into cancer remission, which was also fatigue free.

[2] = system: patient with Alzheimer's disease; assay: Alzheimer's disease patient fatigue case; format: in vivo, human; settings: caregiver testimonial
From the text: A patient with Alzheimer's disease experienced significant muscle and mental fatigue. […] The testimonial is shown below.

[3] = system: patient diagnosed with Fibromyalgia; assay: Fibromyalgia patient fatigue case; format: in vivo, human
From the text: A patient diagnosed with Fibromyalgia had significant fatigue. […] They increased their dosage to 6 capsules per day and has seen more than a 50% improvement in their fatigue.

cancer cells = settings: glioblastoma; cited from earlier work
[4] = system: mitochondrial production and density; settings: cited from earlier work
glucose uptake = settings: diabetic patients and Alzheimer's patients; cited from earlier work
Mouse Soleus Muscle = settings: normal cells, fatigue stimulated by electrical current applied to the muscle; cited from earlier work
[5] = system: post-COVID-19 fatigue patient; assay: post-COVID-19 fatigue case, physician (Example 3); settings: 500 mg BID
[6] = system: patients with post-COVID-19 fatigue; assay: clinical trial in Long Haul post-COVID-19 fatigue; settings: oral 500 mg BID, 6 weeks
Protocol: Fatigue is assessed by the Chalder Fatigue Scale, the Fatigue Severity Scale, and PROMIS-Fatigue-Short Form 7a. Scores are summarized as means and standard deviations and confidence intervals will be calculated. Changes are also summarized as effect sizes. […] All patients provided written informed consent to participate in the study prior to being screened.
18 patients who suffered from “Long Haul” post-COVID-19 fatigue for an average of 6 months were recruited to a clinical trial.

Question: With `Cn1c(=O)c2c(ncn2C)n(C)c1=O` [Caffeine] as the compound, how does the “effects on muscular performance” value [1] read?
Answer: minimal effects on muscular performance

Question: For `NC(=O)C[S+]([O-])C(c1ccccc1)c1ccccc1` (centres unmarked) [Modafinil], which “animal reproduction studies, finding” value (fetus) is on record?
Answer: adverse effect on the fetus

Question: For `CC(N)Cc1ccccc1` (centres unmarked) [amphetamine], which “animal reproduction studies, finding” value (fetus) is on record?
Answer: adverse effect on the fetus

Question: Which “animal reproduction studies, finding” value (fetus) does the source give for `C[C@H](N)Cc1ccccc1` [dextroamphetamine] here?
Answer: adverse effect on the fetus

Question: With `COC(=O)C(c1ccccc1)C1CCCCN1` (centres unmarked) [methylphenidate] as the compound, how does the “animal reproduction studies, finding” value (fetus) read?
Answer: adverse effect on the fetus

Question: Which LD50 (LD50 toxicity) does the source give for `O=C(O)CC(=O)C(=O)O` [oxaloacetate, 2-oxobutanedioic Acid] here?
Answer: above 5 g/kg of body weight

Question: And the “improvement of MDS-UPDRS fatigue score over baseline” value (Parkinson's patients)?
Answer: 28.7%

Question: And the “function, fatigue/muscle function” value (ALS patient)?
Answer: no decline in function

Question: What about the “fatigue after Pneumonia” value (pneumonia patient) of the same compound?
Answer: rapid resolution of fatigue

Question: What about the “reduction from baseline fatigue, Chalder Fatigue Scale” value (patients with ME/CFS; 500 mg BID, 2 weeks, N=22) of the same compound?
Answer: 15.3%

Question: And the “reduction in fatigue, Chalder Fatigue Scale” value (patients with ME/CFS; 500 mg BID, 6-weeks, N=22)?
Answer: 21.9%

Question: And the “reduction in fatigue, Chalder Fatigue Scale” value (patients with ME/CFS; 1,000 mg BID, 6-weeks, N=25)?
Answer: 30.2%

Question: What about the “reduction in fatigue, Chalder Fatigue Scale” value (patients with ME/CFS; 1,000 mg TID, 2 weeks, N=22) of the same compound?
Answer: 17.5%

Question: What about the “severe Adverse Effects recorded in the study” value (patients with ME/CFS; 69 patients, all dosage levels) of the same compound?
Answer: no severe Adverse Effects

Question: And the “patients in the study improved over historical placebo” value (patients with ME/CFS; historical placebo effect 5.9%)?
Answer: 76.8%

Question: And the “patients who experienced insomnia” value (patients with ME/CFS; of 69, resolved by moving dosing to breakfast and lunch)?
Answer: 1 patient

Question: What about the “patients who experienced dyspepsia” value (patients with ME/CFS; of 69, resolved by taking with food) of the same compound?
Answer: 4 patients

Question: And the pathological fatigue (cancer patients; Stage 2 primary prostate cancer, 1,000 mg daily, 4 years)?
Answer: ameliorated

Question: What about the adverse events (cancer patients; glioblastoma patient, 6,000 mg daily for one year) of the same compound?
Answer: without any significant adverse events

Question: And the side effects (cancer patients; hepatocellular carcinoma patient, 3,000 mg per day for 10 months)?
Answer: without side effects

Question: What about the side effects (cancer patients; prostate cancer patient, 1,000 mg daily) of the same compound?
Answer: No side effects

Question: What about the “fatigue associated with the cancer” value (cancer patients; recurrent stage 4 glioblastoma multiforme, 6,000 mg daily) of the same compound?
Answer: ameliorated

Question: And the fatigue (cancer patients; stage 3 colon cancer, 1,000 mg per day (500 mg BID))?
Answer: significant reduction in fatigue

Question: What about the fatigue (cancer patients; stage 4 breast cancer, 1,000 mg per day, after 3 days) of the same compound?
Answer: significant reduction in fatigue

Question: And the fatigue (cancer patients; stage 4 primary hepatocellular carcinoma, 3,000 mg per day)?
Answer: significant reduction in fatigue

Question: What about the “mental and physical pathological fatigue” value [2] of the same compound?
Answer: significantly reduces mental and physical pathological fatigue

Question: And the fatigue ([3]; 2 capsules of 100 mg per day)?
Answer: improvement

Question: What about the improvement in fatigue ([3]; 6 capsules of 100 mg per day) of the same compound?
Answer: > 50%

Question: And the “glycolysis and formation of lactate” value (cancer cells)?
Answer: reducing both glycolysis and the formation of lactate

Question: And the “mitochondrial production and density” value [4]?
Answer: increased mitochondrial production and density

Question: And the glucose uptake (glucose uptake)?
Answer: increase glucose uptake

Question: And the “muscle endurance and muscle fatigue” value (Mouse Soleus Muscle)?
Answer: increase muscle endurance and reduce muscle fatigue

Question: What about the “side effect reported by the patient” value [5] of the same compound?
Answer: nausea

Question: And the “adverse events during the trial” value [6]?
Answer: no significant adverse events

Question: And the “reduction in fatigue compared to baseline, PROMIS Fatigue Short Form 7a” value ([6]; 18 patients, P<0.005)?
Answer: 21%

Question: And the “reduction in fatigue from baseline, Fatigue Severity Scale” value ([6]; 18 patients, P<0.005)?
Answer: 15%

Question: What about the “reduction of fatigue from baseline, Chalder Fatigue Scale” value ([6]; 18 patients, P<0.005) of the same compound?
Answer: 45%

Question: What about the “reduction, Visual Analogue Fatigue Scale” value ([6]; 18 patients, P<0.05) of the same compound?
Answer: 56%
